The supplement of paper PMC10307832

Key:
Assay in all cases: relative viability (nuclei count vs DMSO), 5 days (fraction); higher = more cells survive
Ibrutinib + Trametinib = compound: C=CC(=O)N1CCC[C@@H](n2nc(-c3ccc(Oc4ccccc4)cc3)c3c(N)ncnc32)C1 [Ibrutinib] + CC(=O)Nc1cccc(-n2c(=O)n(C3CC3)c(=O)c3c(Nc4ccc(I)cc4F)n(C)c(=O)c(C)c32)c1 [Trametinib] (partner 0.02 µM)
How it was run: (§1)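 Relative viability equals treated-well nuclei counts divided by vehicle-well nuclei counts. Counts came from 4× images of lung cancer cell lines grown in 1536-well plates for 5 days after pin-tool dosing on the day after seeding. Dosing used one drug alone or a fixed anchor-drug dose plus five library-drug doses (not always all listed) in √10 steps, and values are medians of duplicate plates.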

BMX-IN-1 + Dasatinib = compound: C=CC(=O)Nc1cc(-n2c(=O)ccc3cnc4ccc(-c5ccc(NS(C)(=O)=O)cc5)cc4c32)ccc1C [BMX-IN-1] + Cc1nc(Nc2ncc(C(=O)Nc3c(C)cccc3Cl)s2)cc(N2CCN(CCO)CC2)n1 [Dasatinib] (partner 0.075 µM)
How it was run: as §1

PAC-1 + Phenformin = compound: C=CCc1cccc(/C=N/NC(=O)CN2CCN(Cc3ccccc3)CC2)c1O [PAC-1] + N=C(N)NC(=N)NCCc1ccccc1 [Phenformin] (partner 250 µM)
How it was run: as §1

PAC-1 + Olaparib = compound: C=CCc1cccc(/C=N/NC(=O)CN2CCN(Cc3ccccc3)CC2)c1O [PAC-1] + O=C(c1cc(Cc2n[nH]c(=O)c3ccccc23)ccc1F)N1CCN(C(=O)C2CC2)CC1 [Olaparib] (partner 8 µM)
How it was run: as §1

Row | Cell Line | relative viability (Ibrutinib + Trametinib; first compound 0.005 µM) | relative viability (Ibrutinib + Trametinib; first compound 0.01581 µM) | relative viability (Ibrutinib + Trametinib; first compound 0.05 µM) | relative viability (Ibrutinib + Trametinib; first compound 0.1581 µM) | relative viability (Ibrutinib + Trametinib; first compound 0.5 µM) | relative viability (BMX-IN-1 + Dasatinib; first compound 0.02 µM) | relative viability (BMX-IN-1 + Dasatinib; first compound 0.2 µM) | relative viability (BMX-IN-1 + Dasatinib; first compound 0.6325 µM) | relative viability (BMX-IN-1 + Dasatinib; first compound 2 µM) | relative viability (PAC-1 + Phenformin; first compound 0.02 µM) | relative viability (PAC-1 + Phenformin; first compound 0.06325 µM) | relative viability (PAC-1 + Phenformin; first compound 0.2 µM) | relative viability (PAC-1 + Phenformin; first compound 2 µM) | relative viability (PAC-1 + Olaparib; first compound 0.02 µM) | relative viability (PAC-1 + Olaparib; first compound 0.06325 µM) | relative viability (PAC-1 + Olaparib; first compound 0.2 µM) | relative viability (PAC-1 + Olaparib; first compound 2 µM)
1 | RERF-LC-KJ | 0.956 | 0.815 | 1.09 | 0.822 | 0.742 | 1.08 | 0.883 | 0.82 | 0.939 | 0.414 | 0.392 | 0.407 | 0.427 | 0.891 | 0.86 | 0.929 | 0.83
2 | HCC-15 | 0.387 | 0.367 | 0.419 | 0.432 | 0.365 | 0.662 | 0.64 | 0.745 | 0.64 | 0.466 | 0.487 | 0.457 | 0.491 | 0.644 | 0.775 | 0.69 | 0.771
3 | SW 900 | 0.86 | 0.654 | 0.803 | 0.901 | 0.603 | 0.568 | 0.835 | 0.521 | 0.714 | 0.43 | 0.575 | 0.568 | 0.415 | – | 1.07 | 0.85 | 0.718
4 | NCI-H1755 | 0.761 | 0.796 | 0.796 | 0.793 | 0.746 | 0.389 | 0.452 | 0.438 | 0.48 | 0.615 | 0.614 | 0.595 | 0.606 | 0.879 | 0.837 | 0.849 | 0.826
5 | NCI-H441 | 0.423 | 0.441 | 0.524 | 0.344 | 0.342 | 0.741 | 0.79 | 0.709 | 0.707 | 0.881 | 0.993 | 0.705 | 0.752 | 0.468 | 0.69 | 0.483 | 0.491
6 | HOP-62 | 0.367 | 0.331 | 0.374 | 0.424 | 0.385 | 0.587 | 0.786 | 0.768 | 0.729 | 0.692 | 0.541 | 0.585 | 0.647 | 0.408 | 0.273 | 0.438 | 0.502
7 | UMC-11 | 0.445 | 0.698 | 0.772 | 0.667 | 0.516 | 0.542 | 0.591 | 0.549 | 0.475 | 0.325 | 0.368 | 0.298 | 0.326 | 0.411 | 0.366 | 0.366 | 0.377
8 | BEN | 0.897 | – | 1.06 | 0.974 | 0.794 | 0.308 | 0.34 | 0.241 | 0.295 | 0.273 | 0.282 | 0.266 | 0.302 | 1.14 | 1.05 | 0.885 | 0.872
9 | ChaGo-K-1 | 0.907 | 0.879 | 0.922 | 0.857 | 0.854 | 0.63 | 0.598 | 0.633 | 0.561 | 0.462 | 0.493 | 0.513 | 0.439 | 0.419 | 0.412 | 0.416 | 0.404
